Results as given in paper PMC9916770, “Lycorine Carbamate Derivatives for Reversing P-glycoprotein-Mediated Multidrug Resistance in Human Colon Adenocarcinoma Cells” (International Journal of Molecular Sciences, 2023).

How the values were obtained:
Colo320 cells [1] = experiment: MTT antiproliferative assay, resistant cells; type: cell-based, human; details: for IC50: Homo sapiens, COLO 320, resistant Colo320, MTT, 72 h, mean ± SD, read-out: IC50 Colo320 (B); for SI (selectivity index) C/B: IC50 MRC-5 / IC50 Colo320; for RR (relative resistance ratio) B/A: IC50 resistant Colo320 / IC50 sensitive Colo205
Description: (§1) The human colon adenocarcinoma cell lines Colo205 doxorubicin-sensitive (CCL-222, ATCC, Manassas, VA, USA) and the resistant Colo320/MDR-LRP expressing P-gp were purchased from LGC Promochem (Teddington, UK). The MRC-5 human embryonal lung fibroblast cell line (CCL-171, ATCC) was purchased from Sigma-Aldrich (Merck KGaA, Darmstadt, Germany). The human colon adenocarcinoma cells (Colo205 and Colo320) were cultured in an RPMI 1640 medium supplemented with 10% fetal bovine serum (FBS), 2 mM L-glutamine, 1 mM Na-pyruvate, and 100 mM HEPES. The semi-adherent human colon cancer cells were detached with a trypsin-Versene (EDTA) solution for 5 min at 37 °C. The MRC-5 human embryonal lung fibroblast cells were cultured in EMEM containing 4.5 g/L of glucose and supplemented with a non-essential amino acid mixture, a selection of vitamins, and 10% FBS. The cell lines were incubated at 37 °C, 5% CO2, and 95% air atmosphere.
(§2) The antiproliferative effect of the compounds was tested in decreasing serial dilutions of compounds (starting with 100 µM, then two-fold serial dilution) on human cell lines (Colo205, Colo320, and MRC-5) in 96-well flat-bottomed microtiter plates. Firstly, the compounds were diluted in 100 µL of the medium, and then 6 × 10^3 cells (Colo205 and Colo320), in 100 µL of medium, were added to each well, excluding the medium control wells. The MRC-5 adherent cell line was seeded in the EMEM medium for at least 4 h before the assay. The two-fold serial dilutions of the compounds were made in a separate plate (100–0.19 μM) and then transferred to the plates containing the adherent corresponding cell line. Culture plates were incubated at 37 °C for 72 h, and at the end of the incubation period, 20 μL of MTT (thiazolyl blue tetrazolium bromide) solution (from a 5 mg/mL stock solution) was added to each well and incubated for an additional 4 h. Then, 100 μL of sodium dodecyl sulfate (SDS) solution (10% SDS in 0.01 M HCl) was added to each well, and the plates were further incubated at 37 °C overnight in a CO2 incubator. Cell growth was determined by measuring the optical density (OD) at 540/630 nm with a Multiscan EX ELISA reader (Thermo Labsystems, Cheshire, WA, USA). […] IC50 values and the standard deviation (SD) of triplicate experiments were calculated by using GraphPad Prism 5 software for Windows. Doxorubicin (2 mg/mL, Teva Pharmaceuticals, Budapest, Hungary) was used as a positive control and the vehicle DMSO as the negative control. (1) IC50=[ODsample−ODmedium control/ODcell control−ODmedium control]×100
(§3) The relative resistance (RR) was calculated as the ratio of the IC50 value in the resistant cancer cells and the IC50 in the sensitive cancer cell lines. The selectivity indexes (SI) were calculated as the ratio of the IC50 values in the non-tumor cells and the IC50 in the cancer cell lines. The activity of the compounds toward cancer cells is considered strongly selective if the selectivity index (SI) value is higher than 6, moderately selective if 3 < SI < 6, slightly selective if 1 < SI < 3, and non-selective if SI is lower than 1.

Colo205 cells = experiment: MTT antiproliferative assay, sensitive cells; type: cell-based, human; details: for IC50: Homo sapiens, COLO 205, sensitive Colo205, MTT, 72 h, mean ± SD; for SI (selectivity index) C/A: IC50 MRC-5 / IC50 Colo205
Description: as §1, §2, §3

MRC-5 cells = experiment: MTT antiproliferative assay, normal lung fibroblasts; type: cell-based; details: Homo sapiens, normal embryonal lung fibroblasts, 72 h, mean ± SD, read-out: IC50 MCR-5 (C)
Description: as §1, §2, §3

Colo320 cells [2] = experiment: Checkerboard drug combination assay with doxorubicin; type: cell-based, human; details: for Type of interaction: Colo320; for CI at IC50 (combination index): Colo320, 50% growth inhibition
Description: The interaction of lycorine (1) and some selected derivatives (2, 5, 9, 13, 16, 19, 25, and 26) in combination with the chemotherapeutic drug doxorubicin was performed by the checkerboard assay, a widely used technique for assessing drug interactions, in resistant human Colo320 colon adenocarcinoma cells. The type of drug–drug interaction was evaluated by using the Chou and Talalay method for drug combination and expressed using the combination index (CI) values, and therefore evaluated as synergism (CI < 1), additive (CI = 1), or antagonist (CI > 1).
Drug combination interactions between the compounds and the chemotherapeutic drug doxorubicin were assessed by the checkboard microplate assay on the resistant Colo320, expressing the P-gp transporter. Doxorubicin was serially diluted in the horizontal direction in 100 µL, starting with 8.6 µM, and the compounds were subsequently diluted in the vertical direction in 50 µL. The starting concentration was determined based on the IC50 values. The cells were resuspended in a culture medium and distributed into each well in 50 µL, containing 6 × 10^3 cells, to a final volume of 200 µL per well. The plates were incubated for 72 h at 37 °C in a CO2 incubator, and the cell growth was determined by the MTT staining method, as described previously. Drug interactions were evaluated using CompuSyn software to plot 4 or 5 data points for each ratio (ref software). The results were expressed in terms of combination index (CI) values of 50% growth inhibition, in which a CI value close to 1 indicates additivity, while a CI < 1 is defined as synergy, and a CI > 1 as antagonism.

[3] = molecular target: T1, recombinant human P-gp membranes (Homo sapiens, UniProt P08183); experiment: P-gp-Glo ATPase activity assay; type: biochemical; details: 25 µM, basal activity = 100%
T1 construct: purchased Promega
Description: To evaluate the type of interaction between selected compounds and P-gp, namely to determine if they interacted as stimulators or inhibitors, the ATPase activity assay (P-gp.Glo^TM) was performed, using human P-gp membranes. This assay is based on the ATP consumption necessary for the efflux, obtained from ATP hydrolysis by light-generating firefly luciferase reaction. […] Vanadate is a selective and strong P-gp inhibitor. Therefore, the compounds can be classified as inhibitors or stimulators/substrates by comparing P-gp ATPase activity with the basal activity; stimulators give results higher than 100%, while inhibitors result below 100% of the basal activity. […] The results are presented in Figure 2 as the difference between the luciferase luminescence observed when treated with the tested compounds and with vanadate and compared with the basal activity (100%).
The P-glycoprotein ATPase assay was assessed using the P-gp-Glo^TM Assay System (Promega, WI, USA). The assay was performed according to the manufacturer’s instructions. Briefly, 20 µL of recombinant human P-gp membranes (1.25 mg/mL), expressing high levels of human P-gp, were incubated in 20 µL of P-gp-Glo^TM assay buffer for 5 min at 37 °C. […] The reaction was initiated by adding 10 µL of 25 mM MgATP, and incubated at 37 °C for 40 min. The reaction was stopped after adding 50 µL of ATP Detection Reagent, and the samples and controls were incubated at room temperature for 20 min. The emitted luciferase-generated luminescent signal was measured in a CLARIOstar Plus plate reader (BMG Labtech, Ortenberg, Germany) at 580 nm. The relative ATPase activity was calculated based on the ratio between the luminescence measured of the P-gp ATPase activity of each compound and the basal P-gp ATPase activity according to Equation (3): (3) Relative ATPase activity= Lumtreated−Lumuntreated /LumNa3VO4/Lumuntreated

T1 sequence (P08183 whole entry): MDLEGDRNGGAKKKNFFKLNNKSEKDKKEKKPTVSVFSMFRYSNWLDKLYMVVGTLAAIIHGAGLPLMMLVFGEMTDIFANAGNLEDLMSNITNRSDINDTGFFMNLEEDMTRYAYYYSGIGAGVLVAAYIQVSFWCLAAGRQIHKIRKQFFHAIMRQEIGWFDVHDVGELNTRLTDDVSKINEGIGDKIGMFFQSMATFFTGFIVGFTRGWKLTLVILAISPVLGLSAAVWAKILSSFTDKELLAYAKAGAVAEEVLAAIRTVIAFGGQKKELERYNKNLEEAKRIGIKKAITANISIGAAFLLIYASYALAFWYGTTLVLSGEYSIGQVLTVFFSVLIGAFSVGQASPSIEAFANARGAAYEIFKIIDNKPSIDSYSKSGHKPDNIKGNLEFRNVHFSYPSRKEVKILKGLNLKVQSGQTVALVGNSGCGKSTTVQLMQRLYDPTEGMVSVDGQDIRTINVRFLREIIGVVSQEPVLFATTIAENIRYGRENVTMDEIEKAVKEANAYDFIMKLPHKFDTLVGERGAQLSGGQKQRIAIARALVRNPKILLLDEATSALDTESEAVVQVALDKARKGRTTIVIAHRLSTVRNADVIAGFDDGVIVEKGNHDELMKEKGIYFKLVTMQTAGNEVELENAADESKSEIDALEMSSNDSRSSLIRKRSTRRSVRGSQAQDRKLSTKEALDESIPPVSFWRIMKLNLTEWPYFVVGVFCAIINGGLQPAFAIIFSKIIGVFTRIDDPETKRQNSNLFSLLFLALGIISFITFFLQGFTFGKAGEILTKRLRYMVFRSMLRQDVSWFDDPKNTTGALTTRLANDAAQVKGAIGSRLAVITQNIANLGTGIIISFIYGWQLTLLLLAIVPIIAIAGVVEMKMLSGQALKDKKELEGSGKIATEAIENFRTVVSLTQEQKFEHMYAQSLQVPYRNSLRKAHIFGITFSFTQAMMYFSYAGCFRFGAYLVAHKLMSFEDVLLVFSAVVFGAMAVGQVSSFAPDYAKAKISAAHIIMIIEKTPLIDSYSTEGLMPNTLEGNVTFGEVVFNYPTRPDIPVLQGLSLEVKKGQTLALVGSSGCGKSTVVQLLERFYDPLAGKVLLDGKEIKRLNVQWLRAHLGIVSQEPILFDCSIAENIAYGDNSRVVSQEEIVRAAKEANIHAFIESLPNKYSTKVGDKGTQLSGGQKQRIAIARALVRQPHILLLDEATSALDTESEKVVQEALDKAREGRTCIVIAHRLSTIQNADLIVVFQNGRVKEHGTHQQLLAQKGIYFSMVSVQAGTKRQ

| SMILES | IC50 (Colo320 cells [1]) | IC50 (Colo205 cells) | Effect on basal P-gp ATPase activity [3] | CI at IC50 (combination index) (Colo320 cells [2]) | SI (selectivity index) C/B (Colo320 cells [1]) | RR (relative resistance ratio) B/A (Colo320 cells [1]) | SI (selectivity index) C/A (Colo205 cells) | IC50 (MRC-5 cells) | Type of interaction (Colo320 cells [2]) |
| --- | --- | --- | --- | --- | --- | --- | --- | --- | --- |
| O[C@H]1[C@H]2c3cc4c(cc3CN3CCC(=C[C@@H]1O)[C@H]23)OCO4 [Compound 1, lycorine] | 0.93 ± 0.01 µM | 1.06 ± 0.02 µM |  |  | 3.26 | 0.87 | 2.86 | 3.04 ± 0.11 µM | Moderate antagonism |
| O=C(OC1C=C2CCN3Cc4cc5c(cc4C(C1O)C23)OCO5)N1CCc2ccccc2C1 (stereo not shown) [Compound 13, Lycorine 2-yl 3,4-dihydroisoquinoline-2(1H)-carboxylate] | 78 ± 3.82 µM | 96.26 ± 0.33 µM |  | 0.69 |  |  |  | > 100 µM | Synergism |
| O=C(NCCc1ccc(F)cc1)OC1C=C2CCN3Cc4cc5c(cc4C(C1OC(=O)NCCc1ccc(F)cc1)C23)OCO5 (stereo not shown) [Compound 23, Lycorine 1,2-diyl bis[(4-fluorophenethyl) carbamate]] | > 100 µM | > 100 µM |  |  | <0.037 |  | <0.037 | 3.79 ± 0.21 µM |  |
| O=C(NCCc1ccc(F)cc1)OC1C=C2CCN3Cc4cc5c(cc4C(C1O)C23)OCO5 (stereo not shown) [Compound 24, Lycorine 2-yl (4-fluorophenethyl)carbamate] | > 100 µM | > 100 µM |  |  |  |  |  | > 100 µM |  |
| O=C(NCc1ccc(F)cc1)OC1C=C2CCN3Cc4cc5c(cc4C(C1OC(=O)NCc1ccc(F)cc1)C23)OCO5 (stereo not shown) [Compound 27, Lycorine 1,2-diyl bis[(4-fluorobenzyl)carbamate]] | > 100 µM | > 100 µM |  |  |  |  |  | > 100 µM |  |
| O=C(NCc1ccc(F)cc1)OC1C=C2CCN3Cc4cc5c(cc4C(C1O)C23)OCO5 (stereo not shown) [Compound 28, Lycorine 2-yl (4-fluorobenzyl)carbamate] | > 100 µM | > 100 µM |  |  |  |  |  | > 100 µM |  |
| CCCNC(=O)OC1C=C2CCN3Cc4cc5c(cc4C(C1OC(=O)NCCC)C23)OCO5 (stereo not shown) [Compound 29, Lycorine 1,2-diyl bis(propylcarbamate)] | > 100 µM | > 100 µM |  |  |  |  |  | > 100 µM |  |
| CCCNC(=O)OC1C=C2CCN3Cc4cc5c(cc4C(C1O)C23)OCO5 (stereo not shown) [Compound 30, Lycorine 2-yl propylcarbamate] | > 100 µM | > 100 µM |  |  |  |  |  | > 100 µM |  |
| O=C(NCc1ccccc1)OC1C=C2CCN3Cc4cc5c(cc4C(C1OC(=O)NCc1ccccc1)C23)OCO5 (stereo not shown) [Compound 32, Lycorine 1,2-diyl bis(benzylcarbamate)] | > 100 µM | > 100 µM |  |  |  |  |  | 71.9 ± 5.38 µM |  |

More lines, main results first:

| IC50 (Colo320 cells [1]) | IC50 (Colo205 cells) | Effect on basal P-gp ATPase activity [3] | CI at IC50 (combination index) (Colo320 cells [2]) | SMILES | SI (selectivity index) C/B (Colo320 cells [1]) | RR (relative resistance ratio) B/A (Colo320 cells [1]) | SI (selectivity index) C/A (Colo205 cells) | IC50 (MRC-5 cells) | Type of interaction (Colo320 cells [2]) |
| --- | --- | --- | --- | --- | --- | --- | --- | --- | --- |
| 40.4 ± 1.9 µM | 19.3 ± 0.87 µM | decreased the basal activity | 0.88 | O=C(NCc1ccc(Cl)cc1)OC1C=C2CCN3Cc4cc5c(cc4C(C1O)C23)OCO5 (stereo not shown) [Compound 2, Lycorine 2-yl (4-chlorobenzyl)carbamate] | 1.44 | 2.09 | 3.01 | 58.1 ± 0.83 µM | Slight synergism |
| 32.7 ± 0.62 µM | > 100 µM | decreased the basal activity | 0.13 | Cc1ccc(CNC(=O)OC2C=C3CCN4Cc5cc6c(cc5C(C2OC(=O)NCc2ccc(C)cc2)C34)OCO6)cc1 (stereo not shown) [Compound 5, Lycorine 1,2-diyl bis[(4-methylbenzyl)carbamate]] | 0.17 |  | <0.057 | 5.75 ± 0.47 µM | Strong synergism |
| 10.4 ± 0.28 µM | > 100 µM | decreased the basal activity | 0.56 | O=C(NCCc1ccccc1)OC1C=C2CCN3Cc4cc5c(cc4C(C1OC(=O)NCCc1ccccc1)C23)OCO5 (stereo not shown) [Compound 9, Lycorine 1,2-diyl bis(phenethylcarbamate)] | 0.43 | <0.10 | <0.045 |  | Synergism |
| 26.6 ± 1.37 µM | 55.4 ± 1.63 µM |  | 0.57 | O=C(OC1C=C2CCN3Cc4cc5c(cc4C(C1OC(=O)N1CCCCC1)C23)OCO5)N1CCCCC1 (stereo not shown) [Compound 16, Lycorine 1,2-diyl bis(piperidine-1-carboxylate)] | 2.22 |  | 1.06 | 59.2 ± 4.82 µM | Synergism |
| 7.64 ± 0.15 µM | 26.5 ± 0.476 µM | decreased the basal activity | 0.88 | CC(C)(C)c1ccc(CNC(=O)OC2C=C3CCN4Cc5cc6c(cc5C(C2O)C34)OCO6)cc1 (stereo not shown) [Compound 19, Lycorine 2-yl [4-(tert-butyl)benzyl]carbamate] | 5.66 | 0.28 | 1.63 | 43.3 ± 0.75 µM | Slight synergism |
